Results taken from US20210045385A1, “PYRIDAZINONE-SUBSTITUTED KETOXIMES AS HERBICIDES” (FMC Corporation, priority 2018, published 2021).

What was measured:
Assay type in all cases: in vivo
[1] = system: barnyardgrass (Echinochloa crus-galli); assay: Test A preemergence, visual plant response rating; conditions: approx. 10 days
Description: (§1) Seeds of plant species selected from barnyardgrass (Echinochloa crus-galli), kochia (Kochia scoparia), ragweed (common ragweed, Ambrosia elatior), Italian ryegrass (Lolium multiflorum), foxtail, giant (giant foxtail, Setaria faberii), foxtail, green (green foxtail, Setaria viridis), and pigweed (Amaranthus retroflexus) were planted into a blend of loam soil and sand and treated preemergence with a directed soil spray using test chemicals formulated in a non-phytotoxic solvent mixture which included a surfactant.
(§2) At the same time, plants selected from these weed species and also wheat (Triticum aestivum), corn (Zea mays), blackgrass (Alopecurus myosuroides), and galium (catchweed bedstraw, Galium aparine) were planted in pots containing the same blend of loam soil and sand and treated with postemergence applications of test chemicals formulated in the same manner. Plants ranged in height from 2 to 10 cm and were in the one- to two-leaf stage for the postemergence treatment. Treated plants and untreated controls were maintained in a greenhouse for approximately 10 days, after which time all treated plants were compared to untreated controls and visually evaluated for injury. Plant response ratings, summarized in Table A, are based on a 0 to 100 scale where 0 is no effect and 100 is complete control. A dash (-) response means no test result.

[2] = system: Italian ryegrass (Lolium multiflorum); assay: Test A preemergence, visual plant response rating; conditions: approx. 10 days
Description: as §1, §2

[3] = system: pigweed (Amaranthus retroflexus); assay: Test A preemergence, visual plant response rating; conditions: approx. 10 days
Description: as §1, §2

kochia (Kochia scoparia) [4] = assay: Test A preemergence, visual plant response rating; conditions: approx. 10 days
Description: as §1, §2

[5] = system: foxtail, giant (giant foxtail, Setaria faberii); assay: Test A preemergence, visual plant response rating; conditions: approx. 10 days
Description: as §1, §2

[6] = system: ragweed (common ragweed, Ambrosia elatior); assay: Test A preemergence, visual plant response rating; conditions: approx. 10 days
Description: as §1, §2

[7] = system: barnyardgrass (Echinochloa crus-galli); assay: Test B flooded paddy test, visual plant response rating; conditions: 250 g ai/ha, Flood, applied to paddy water, 2-leaf stage, evaluated after 13 to 15 days
Method: (§3) Plant species in the flooded paddy test selected from rice (Oryza sativa), sedge, umbrella (small-flower umbrella sedge, Cyperus difformis), ducksalad (Heteranhera limosa), and barnyardgrass (Echinochloa crus-galli) were grown to the 2-leaf stage for testing. At time of treatment, test pots were flooded to 3 cm above the soil surface treated by application of test compounds directly to the paddy water, and then maintained at that water depth for the duration of the test. Treated plants and controls were maintained in a greenhouse for 13 to 15 days, after which time all species were compared to controls and visually evaluated. […] A dash (-) response means no test result.

[8] = system: sedge, umbrella (small-flower umbrella sedge, Cyperus difformis); assay: as above; conditions: 250 g ai/ha, Flood, applied to paddy water, 2-leaf stage, evaluated after 13 to 15 days
Method: as §3

[9] = system: ducksalad (Heteranhera limosa); assay: as above; conditions: 250 g ai/ha, Flood, applied to paddy water, 2-leaf stage, evaluated after 13 to 15 days
Method: as §3

rice (Oryza sativa) = assay: as above; conditions: 250 g ai/ha, Flood, applied to paddy water, 2-leaf stage, evaluated after 13 to 15 days
Method: as §3

[10] = system: galium (catchweed bedstraw, Galium aparine); assay: Test A postemergence, visual plant response rating; conditions: for Galium plant response rating (0 to 100 scale): 500 g ai/ha, postemergence, 0 is no effect, 100 is complete control; for Galium plant response rating: Postemergence, 125 g ai/ha, 0 to 100 scale (0 no effect, 100 complete control)
Description: as §1, §2

[11] = system: barnyardgrass (Echinochloa crus-galli); assay: Test A postemergence, visual plant response rating; conditions: for Barnyardgrass plant response rating (0 to 100 scale): 500 g ai/ha, postemergence, 0 is no effect, 100 is complete control; for Barnyardgrass plant response rating: Postemergence, 125 g ai/ha, 0 to 100 scale (0 no effect, 100 complete control)
Description: as §1, §2

[12] = system: blackgrass (Alopecurus myosuroides); assay: Test A postemergence, visual plant response rating; conditions: for Blackgrass plant response rating (0 to 100 scale): 500 g ai/ha, postemergence, 0 is no effect, 100 is complete control; for Blackgrass plant response rating: Postemergence, 125 g ai/ha, 0 to 100 scale (0 no effect, 100 complete control)
Description: as §1, §2

[13] = system: Italian ryegrass (Lolium multiflorum); assay: Test A postemergence, visual plant response rating; conditions: for Ryegrass, Italian plant response rating (0 to 100 scale): 500 g ai/ha, postemergence, 0 is no effect, 100 is complete control; for Ryegrass, Italian plant response rating: Postemergence, 125 g ai/ha, 0 to 100 scale (0 no effect, 100 complete control)
Description: as §1, §2

[14] = system: pigweed (Amaranthus retroflexus); assay: Test A postemergence, visual plant response rating; conditions: for Pigweed plant response rating (0 to 100 scale): 500 g ai/ha, postemergence, 0 is no effect, 100 is complete control; for Pigweed plant response rating: Postemergence, 125 g ai/ha, 0 to 100 scale (0 no effect, 100 complete control)
Description: as §1, §2

[15] = system: wheat (Triticum aestivum); assay: Test A postemergence, visual plant response rating; conditions: for Wheat plant response rating (0 to 100 scale): 500 g ai/ha, postemergence, 0 is no effect, 100 is complete control; for Wheat plant response rating: Postemergence, 125 g ai/ha, 0 to 100 scale (0 no effect, 100 complete control)
Description: as §1, §2

kochia (Kochia scoparia) [16] = assay: Test A postemergence, visual plant response rating; conditions: for Kochia plant response rating (0 to 100 scale): 500 g ai/ha, postemergence, 0 is no effect, 100 is complete control; for Kochia plant response rating: Postemergence, 125 g ai/ha, 0 to 100 scale (0 no effect, 100 complete control)
Description: as §1, §2

[17] = system: foxtail, giant (giant foxtail, Setaria faberii); assay: Test A postemergence, visual plant response rating; conditions: for Foxtail, Giant plant response rating (0 to 100 scale): 500 g ai/ha, postemergence, 0 is no effect, 100 is complete control; for Foxtail, Giant plant response rating: Postemergence, 125 g ai/ha, 0 to 100 scale (0 no effect, 100 complete control)
Description: as §1, §2

corn (Zea mays) = assay: Test A postemergence, visual plant response rating; conditions: for Corn plant response rating (0 to 100 scale): 500 g ai/ha, postemergence, 0 is no effect, 100 is complete control; for Corn plant response rating: Postemergence, 125 g ai/ha, 0 to 100 scale (0 no effect, 100 complete control)
Description: as §1, §2

[18] = system: ragweed (common ragweed, Ambrosia elatior); assay: Test A postemergence, visual plant response rating; conditions: for Ragweed plant response rating (0 to 100 scale): 500 g ai/ha, postemergence, 0 is no effect, 100 is complete control; for Ragweed plant response rating: Postemergence, 125 g ai/ha, 0 to 100 scale (0 no effect, 100 complete control)
Description: as §1, §2

Structure (SMILES)	Barnyardgrass plant response rating (0 to 100 scale) ([1]; 125 g ai/ha Preemergence)	Barnyardgrass plant response rating (0 to 100 scale) ([1]; 500 g ai/ha Preemergence)	Ryegrass, Italian plant response rating (0 to 100 scale) ([2]; 125 g ai/ha Preemergence)	Ryegrass, Italian plant response rating (0 to 100 scale) ([2]; 500 g ai/ha Preemergence)	Pigweed plant response rating (0 to 100 scale) ([3]; 125 g ai/ha Preemergence)	Pigweed plant response rating (0 to 100 scale) ([3]; 500 g ai/ha Preemergence)	Kochia plant response rating (0 to 100 scale) (kochia (Kochia scoparia) [4]; 125 g ai/ha Preemergence)	Kochia plant response rating (0 to 100 scale) (kochia (Kochia scoparia) [4]; 500 g ai/ha Preemergence)	Foxtail, Giant plant response rating (0 to 100 scale) ([5]; 125 g ai/ha Preemergence)	Foxtail, Giant plant response rating (0 to 100 scale) ([5]; 500 g ai/ha Preemergence)	Ragweed plant response rating (0 to 100 scale) ([6]; 125 g ai/ha Preemergence)	Ragweed plant response rating (0 to 100 scale) ([6]; 500 g ai/ha Preemergence)	Plant response rating, Barnyardgrass (0 to 100 scale, 0 is no effect, 100 is complete control) [7]	Plant response rating, Sedge, Umbrella (0 to 100 scale, 0 is no effect, 100 is complete control) [8]	Plant response rating, Ducksalad (0 to 100 scale, 0 is no effect, 100 is complete control) [9]	Plant response rating, Rice (0 to 100 scale, 0 is no effect, 100 is complete control) (rice (Oryza sativa))	Galium plant response rating (0 to 100 scale) [10]	Galium plant response rating [10]	Barnyardgrass plant response rating (0 to 100 scale) [11]	Barnyardgrass plant response rating [11]	also measured
C#CCn1nc(C)c(O)c(C(=NOC)c2cccc(Cl)c2)c1=O (mixture of isomers) [Compound 3]	0	20	30	70	0	10	10	10	0	10	10	10	0	0	0	0	70	30	40	0	Blackgrass plant response rating (0 to 100 scale) [12]: 50; Blackgrass plant response rating [12]: 10; Ryegrass, Italian plant response rating (0 to 100 scale) [13]: 80; Ryegrass, Italian plant response rating [13]: 20; Pigweed plant response rating (0 to 100 scale) [14]: 50; Pigweed plant response rating [14]: 20; Wheat plant response rating (0 to 100 scale) [15]: 10; Wheat plant response rating [15]: 0; Kochia plant response rating (0 to 100 scale) (kochia (Kochia scoparia) [16]): 50; Kochia plant response rating (kochia (Kochia scoparia) [16]): 10; Foxtail, Giant plant response rating (0 to 100 scale) [17]: 40; Foxtail, Giant plant response rating [17]: 10; Corn plant response rating (0 to 100 scale) (corn (Zea mays)): 20; Corn plant response rating (corn (Zea mays)): 0; Ragweed plant response rating (0 to 100 scale) [18]: 60; Ragweed plant response rating [18]: 20
CON=C(c1cccc(Cl)c1)c1c(O)c(C)nn(CC2CC2)c1=O (mixture of isomers) [Compound 4]	20	70	0	30	0	0	0	0	0	50	0	0	0	0	0	0	0	0	0	0	Blackgrass plant response rating (0 to 100 scale) [12]: 40; Blackgrass plant response rating [12]: 0; Ryegrass, Italian plant response rating (0 to 100 scale) [13]: 0; Ryegrass, Italian plant response rating [13]: 0; Pigweed plant response rating (0 to 100 scale) [14]: 0; Pigweed plant response rating [14]: 0; Wheat plant response rating (0 to 100 scale) [15]: 0; Wheat plant response rating [15]: 0; Kochia plant response rating (0 to 100 scale) (kochia (Kochia scoparia) [16]): 0; Kochia plant response rating (kochia (Kochia scoparia) [16]): 0; Foxtail, Giant plant response rating (0 to 100 scale) [17]: 0; Foxtail, Giant plant response rating [17]: 0; Corn plant response rating (0 to 100 scale) (corn (Zea mays)): 0; Corn plant response rating (corn (Zea mays)): 0; Ragweed plant response rating (0 to 100 scale) [18]: 0; Ragweed plant response rating [18]: 0
